Among the test systems are OVCAR-5 ovarian; OVCAR-3 ovarian; SK-MEL-5 melanoma; SF-268 CNS; U251 CNS; HCT-15 colon; SN12C renal; HOP-62 NSCLC; SK-OV-3 ovarian; A498 renal.
Holding throughout (experiment): growth of human tumour cells (NCI), 48 h

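Five compound concentrations were applied to cells in 96-well plates for 48 hours; endpoints were derived by simple linear interpolation of the resulting dose-response curve. GI50 marks 50% less growth. At the TGI there is no net growth.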

For `CC[C@@H](C(=O)O)C1CC[C@H](C)C([C@@H](C)[C@H](O)[C@H](C)C(=O)[C@H](CC)C2O[C@]3(C=C[C@@H](O)[C@]4(CC[C@@](C)(C5CC[C@](O)(CC)[C@H](C)O5)O4)O3)[C@H](C)C[C@@H]2C)O1` (stereo not given in full), the GI50 in the assay on OVCAR-5 ovarian was 2.48 µM; in the assay on OVCAR-3 ovarian, 0.0434 µM; with SK-MEL-5 melanoma it was 0.18 µM; in the assay with SF-268 CNS, 1.31 µM; with U251 CNS, 0.115 µM; in the assay on HCT-15 colon, 0.446 µM. The GI50 was 0.128 µM in the assay on SN12C renal, 1.11 µM in the assay on HOP-62 NSCLC, 3.44 µM in the assay with SK-OV-3 ovarian and 0.0458 µM with A498 renal. The TGI in the assay with OVCAR-5 ovarian amounted to 50.8 µM; with OVCAR-3 ovarian, 16.4 µM; with SK-MEL-5 melanoma it was 0.86 µM; with SF-268 CNS, 16 µM; with U251 CNS, 10.2 µM; with HCT-15 colon it was 21.8 µM. Further, the TGI with SN12C renal was 28.7 µM; in the assay on HOP-62 NSCLC, 21.7 µM; in the assay with SK-OV-3 ovarian, 31.8 µM; in the assay on A498 renal, 0.799 µM.

For the compound `C/C(=N\NS(=O)(=O)c1ccccc1)c1ccc(Cl)c(Cl)c1`, the TGI with OVCAR-5 ovarian, in the assay on OVCAR-3 ovarian, in the assay with SK-MEL-5 melanoma, in the assay with SF-268 CNS, with U251 CNS and in the assay with HCT-15 colon was more than 100 µM throughout. Moreover, the TGI in the assay with SN12C renal, in the assay on HOP-62 NSCLC, in the assay on SK-OV-3 ovarian and in the assay on A498 renal was more than 100 µM throughout.

Turning to `Cc1ccc(NC(=O)C(=O)C(C#N)c2ccccc2C)cc1C` (stereo not given), the TGI in the assay on OVCAR-5 ovarian is more than 100 µM; in the assay with OVCAR-3 ovarian, more than 100 µM; in the assay on SK-MEL-5 melanoma, more than 100 µM; in the assay with SF-268 CNS, more than 100 µM; with U251 CNS, more than 100 µM; with HCT-15 colon it was more than 62 µM. Besides, the TGI in the assay with SN12C renal, with HOP-62 NSCLC, in the assay on SK-OV-3 ovarian and in the assay with A498 renal was more than 100 µM throughout.

Consider `CCCCCCCCCCCCCCCCN1CC2CCCCC2C1` (stereo not given), for which the GI50 in the assay with OVCAR-5 ovarian was 5.33 µM; in the assay with OVCAR-3 ovarian, 17.6 µM; in the assay on SK-MEL-5 melanoma, 5.84 µM; with SF-268 CNS it was 69.2 µM; with U251 CNS, 14.5 µM; in the assay with HCT-15 colon, 6.79 µM. Further, the GI50 in the assay on SN12C renal is 8.26 µM; in the assay with HOP-62 NSCLC it was 12.5 µM; with SK-OV-3 ovarian, 12.5 µM; in the assay with A498 renal, 16.2 µM. Also, the TGI with OVCAR-5 ovarian is 18.8 µM; with OVCAR-3 ovarian, 34.1 µM; in the assay on SK-MEL-5 melanoma, 19.5 µM; in the assay with SF-268 CNS, more than 100 µM; in the assay with U251 CNS, more than 100 µM; with HCT-15 colon, 61.2 µM. In addition, the TGI in the assay with SN12C renal came out at 21.3 µM; with HOP-62 NSCLC, 25.7 µM; in the assay on SK-OV-3 ovarian, 29.7 µM; with A498 renal, 30.6 µM.

For `CCc1nccc2c1nc(-c1nonc1N)n2CC`, the GI50 in the assay on OVCAR-5 ovarian was more than 17.8 µM; in the assay with OVCAR-3 ovarian it was more than 25 µM; in the assay with SK-MEL-5 melanoma it was more than 25 µM; in the assay on SF-268 CNS, more than 25 µM; in the assay on U251 CNS, more than 25 µM; in the assay with HCT-15 colon, more than 25 µM. The GI50 in the assay with SN12C renal is more than 25 µM; with HOP-62 NSCLC, more than 25 µM; with SK-OV-3 ovarian, more than 25 µM; in the assay on A498 renal it was 7.1 µM. Moreover, the TGI in the assay on OVCAR-5 ovarian, in the assay with OVCAR-3 ovarian, in the assay on SK-MEL-5 melanoma, with SF-268 CNS, in the assay on U251 CNS and with HCT-15 colon was more than 25 µM throughout. For the same compound, the TGI in the assay on SN12C renal, in the assay on HOP-62 NSCLC, in the assay on SK-OV-3 ovarian and with A498 renal was more than 25 µM in each case.

With `CN(C)CCCNC(CC#N)CCC#N` (stereo not given), the TGI in the assay with OVCAR-5 ovarian, in the assay on OVCAR-3 ovarian, in the assay on SK-MEL-5 melanoma, in the assay with SF-268 CNS, with U251 CNS and in the assay on HCT-15 colon was more than 10 µM throughout. Moreover, the TGI with SN12C renal, with HOP-62 NSCLC, with SK-OV-3 ovarian and with A498 renal was more than 10 µM in each case.

In the case of `O=C(NCCCCCCNC(=O)n1cc(F)c(=O)[nH]c1=O)NCCCOCCOCCOCCOCCOCCOCCOCCOCCOCCOCCOCCOCCOCCOCCOCCOCCOCCOCCOCCOCCOCCCNC(=O)C(O)C(O)C(O)C(O)CO` (stereo not given), the TGI in the assay with OVCAR-5 ovarian, in the assay with OVCAR-3 ovarian, in the assay with SK-MEL-5 melanoma, in the assay on SF-268 CNS, in the assay on U251 CNS and in the assay with HCT-15 colon was more than 100 µM throughout. The TGI in the assay on SN12C renal is more than 100 µM; in the assay on HOP-62 NSCLC, more than 100 µM; with SK-OV-3 ovarian, more than 100 µM; in the assay with A498 renal it was more than 42.1 µM.

For `Oc1cccc2ccc(N/N=C/c3cc(CN4CCCCC4)c(O)c4ncccc34)nc12`, the GI50 is 0.0639 µM with OVCAR-5 ovarian; 0.0858 µM in the assay on OVCAR-3 ovarian; 0.0239 µM with SK-MEL-5 melanoma; 0.0635 µM in the assay on SF-268 CNS; 0.0329 µM in the assay on U251 CNS; 0.0339 µM in the assay on HCT-15 colon. Moreover, the GI50 in the assay with SN12C renal was 0.0931 µM; in the assay with HOP-62 NSCLC it was 0.0456 µM; with SK-OV-3 ovarian, 0.0435 µM; in the assay on A498 renal it was 0.433 µM. Moreover, the TGI in the assay on OVCAR-5 ovarian amounted to 13 µM; with OVCAR-3 ovarian it was 1.74 µM; with SK-MEL-5 melanoma it was 0.0559 µM; with SF-268 CNS, 13.4 µM; in the assay with U251 CNS, 1.28 µM; in the assay on HCT-15 colon it was 1.51 µM. Further, the TGI in the assay with SN12C renal came to 12.9 µM; in the assay with HOP-62 NSCLC, 8.04 µM; with SK-OV-3 ovarian, 0.653 µM; in the assay on A498 renal it was 14.1 µM.

As to `COc1cc(C(=O)C/C(CCCC(=O)Nc2ccccc2[N+](=O)[O-])=N/NC(=O)c2cc3ccccc3cc2O)ccc1O`, the TGI in the assay on OVCAR-5 ovarian is more than 100 µM; in the assay with OVCAR-3 ovarian, more than 100 µM; in the assay with SK-MEL-5 melanoma it was more than 83.7 µM; with SF-268 CNS, more than 100 µM; in the assay on U251 CNS, more than 100 µM; with HCT-15 colon, more than 74.3 µM. The TGI with SN12C renal was more than 100 µM; with HOP-62 NSCLC it was more than 100 µM; with SK-OV-3 ovarian, 95.7 µM; in the assay with A498 renal, more than 100 µM.

These data come from PubChem BioAssay (NCI).
